Measured values reported in the supplement of paper PMC4862054.

Key:
Conditions in all cases: incubation time: 72 h
CAL-148 [1] = test: normalised response (% of control), CellTiter-Glo; higher = more viable cells (100 = DMSO, 0 = benzethonium chloride kill control)
Description: (§1)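 DSRT, 72 h incubation, CellTox Green / CellTiter-Glo readout. Signal is normalised to DMSO and benzethonium chloride controls. Value is the normalised response at dose 3.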

BT-549 [2] = test: as above
Description: as §1

DU-4475 [3] = test: as above
Description: as §1

HCC1599 [4] = test: as above
Description: as §1

CAL-120 [5] = test: as above
Description: as §1

MDA-MB-436 [6] = test: as above
Description: as §1

Hs578T [7] = test: as above
Description: as §1

BT-474 [8] = test: as above
Description: as §1

SK-BR-3 = test: as above
Description: as §1

HCC1143 [9] = test: as above
Description: as §1

CAL-51 [10] = test: as above
Description: as §1

HCC1937 [11] = test: as above
Description: as §1

MFM-223 [12] = test: as above
Description: as §1

MCF-10A [13] = test: as above
Description: as §1

MDA-MB-453 [14] = test: as above
Description: as §1

MDA-MB-231 [15] = test: as above
Description: as §1

MDA-MB-468 [16] = test: as above
Description: as §1

HDQ-P1 [17] = test: as above
Description: as §1

CAL-85-1 [18] = test: as above
Description: as §1

CAL-148 [19] = test: normalised response (% of control), CellTox Green; higher = less cell death (100 = DMSO, 0 = benzethonium chloride kill control)
In short: (§2)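 The table gives the normalised signal for a single concentration in each entry. Breast cancer cell lines were seeded (20 µl suspension) into 384-well plates holding compound at 5 concentrations in 10-fold steps over a compound-specific 10,000-fold range and incubated 72 h, then read for CellTox Green fluorescence (485/520 nm) and CellTiter-Glo luminescence. Normalisation on each plate used 0.1 % DMSO (100) and a positive kill control (0).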

BT-549 [20] = test: as above
In short: as §2

DU-4475 [21] = test: as above
In short: as §2

HCC1599 [22] = test: as above
In short: as §2

CAL-120 [23] = test: as above
In short: as §2

MDA-MB-436 [24] = test: as above
In short: as §2

Hs578T [25] = test: as above
In short: as §2

BT-474 [26] = test: as above
In short: as §2

HCC1143 [27] = test: as above
In short: as §2

CAL-51 [28] = test: as above
In short: as §2

HCC1937 [29] = test: as above
In short: as §2

MFM-223 [30] = test: as above
In short: as §2

MCF-10A [31] = test: as above
In short: as §2

MDA-MB-453 [32] = test: as above
In short: as §2

MDA-MB-468 [33] = test: as above
In short: as §2

CAL-85-1 [34] = test: as above
In short: as §2

MDA-MB-231 [35] = test: as above
In short: as §2

HDQ-P1 [36] = test: as above
In short: as §2

Cc1cc(C(C)Nc2ccccc2)c2nc(N3CCOCC3)cc(=O)n2c1 (configuration not stated) [TGX-221] (100 nM)
normalised response (CAL-148 [1]): 100%
normalised response (BT-549 [2]): 86.5%
normalised response (DU-4475 [3]): 95.8%
normalised response (HCC1599 [4]): 113%
normalised response (CAL-120 [5]): 97.2%
normalised response (MDA-MB-436 [6]): 94%
normalised response (Hs578T [7]): 93.9%
normalised response (BT-474 [8]): 90.1%
normalised response (SK-BR-3): 99.7%
normalised response (HCC1143 [9]): 96.4%
normalised response (CAL-51 [10]): 65.8%
normalised response (HCC1937 [11]): 88.1%
normalised response (MFM-223 [12]): 94%
normalised response (MCF-10A [13]): 93.5%
normalised response (MDA-MB-453 [14]): 93.2%
normalised response (MDA-MB-231 [15]): 92.7%
normalised response (MDA-MB-468 [16]): 86.4%
normalised response (HDQ-P1 [17]): 98.7%
normalised response (CAL-85-1 [18]): 99.7%
normalised response (CAL-148 [19]): 81%
normalised response (BT-549 [20]): 92.5%
normalised response (DU-4475 [21]): 99.1%
normalised response (HCC1599 [22]): 95.3%
normalised response (CAL-120 [23]): 105%
normalised response (MDA-MB-436 [24]): 97%
normalised response (Hs578T [25]): 98.5%
normalised response (BT-474 [26]): 89.3%
normalised response (HCC1143 [27]): 74.4%
normalised response (CAL-51 [28]): 90.6%
normalised response (HCC1937 [29]): 80.5%
normalised response (MFM-223 [30]): 99.2%
normalised response (MCF-10A [31]): 108%
normalised response (MDA-MB-453 [32]): 96%
normalised response (MDA-MB-468 [33]): 52.6%
normalised response (CAL-85-1 [34]): 114%

CS(=O)(=O)CCNCc1ccc(-c2ccc3ncnc(Nc4ccc(OCc5cccc(F)c5)c(Cl)c4)c3c2)o1 [Lapatinib] (10 nM)
normalised response (CAL-148 [1]): 112%
normalised response (BT-549 [2]): 105%
normalised response (DU-4475 [3]): 106%
normalised response (HCC1599 [4]): 97.6%
normalised response (CAL-120 [5]): 107%
normalised response (MDA-MB-436 [6]): 100%
normalised response (Hs578T [7]): 106%
normalised response (BT-474 [8]): 101%
normalised response (SK-BR-3): 87.1%
normalised response (HCC1143 [9]): 103%
normalised response (CAL-51 [10]): 90.1%
normalised response (HCC1937 [11]): 99.2%
normalised response (MFM-223 [12]): 109%
normalised response (MCF-10A [13]): 95.5%
normalised response (MDA-MB-453 [14]): 105%
normalised response (MDA-MB-231 [15]): 103%
normalised response (MDA-MB-468 [16]): 99.1%
normalised response (HDQ-P1 [17]): 95.7%
normalised response (CAL-85-1 [18]): 101%
normalised response (BT-549 [20]): 91.8%
normalised response (DU-4475 [21]): 101%
normalised response (HCC1599 [22]): 103%
normalised response (CAL-120 [23]): 101%
normalised response (MDA-MB-436 [24]): 107%
normalised response (Hs578T [25]): 104%
normalised response (BT-474 [26]): 97.8%
normalised response (HCC1143 [27]): 109%
normalised response (CAL-51 [28]): 99.4%
normalised response (HCC1937 [29]): 90.5%
normalised response (MFM-223 [30]): 105%
normalised response (MCF-10A [31]): 100%
normalised response (MDA-MB-453 [32]): 103%
normalised response (MDA-MB-231 [35]): 76.9%
normalised response (MDA-MB-468 [33]): 87.9%
normalised response (HDQ-P1 [36]): 82.1%
normalised response (CAL-85-1 [34]): 87.4%

CCS(=O)(=O)c1cccc(-c2cc(C(=O)NC3CCN(C)CC3)c(C)c3[nH]c4ncc(C)cc4c23)c1 [TAK-901] (10 nM)
normalised response (CAL-148 [1]): 104%
normalised response (BT-549 [2]): 101%
normalised response (DU-4475 [3]): 107%
normalised response (HCC1599 [4]): 120%
normalised response (CAL-120 [5]): 99.6%
normalised response (MDA-MB-436 [6]): 110%
normalised response (Hs578T [7]): 108%
normalised response (BT-474 [8]): 102%
normalised response (SK-BR-3): 108%
normalised response (HCC1143 [9]): 98.7%
normalised response (CAL-51 [10]): 92.4%
normalised response (HCC1937 [11]): 93.4%
normalised response (MFM-223 [12]): 109%
normalised response (MCF-10A [13]): 104%
normalised response (MDA-MB-453 [14]): 103%
normalised response (MDA-MB-231 [15]): 101%
normalised response (MDA-MB-468 [16]): 94.7%
normalised response (HDQ-P1 [17]): 97%
normalised response (CAL-85-1 [18]): 100%
normalised response (CAL-148 [19]): 105%
normalised response (BT-549 [20]): 72.2%
normalised response (DU-4475 [21]): 101%
normalised response (HCC1599 [22]): 104%
normalised response (CAL-120 [23]): 103%
normalised response (MDA-MB-436 [24]): 96%
normalised response (BT-474 [26]): 100%
normalised response (HCC1143 [27]): 69%
normalised response (CAL-51 [28]): 98.6%
normalised response (HCC1937 [29]): 120%
normalised response (MFM-223 [30]): 101%
normalised response (MCF-10A [31]): 78.2%
normalised response (MDA-MB-453 [32]): 101%
normalised response (MDA-MB-231 [35]): 100%
normalised response (MDA-MB-468 [33]): 77.1%
normalised response (HDQ-P1 [36]): 108%
normalised response (CAL-85-1 [34]): 95.7%

CN(c1ccccc1CNc1nc(Nc2ccc3c(c2)CC(=O)N3)ncc1C(F)(F)F)S(C)(=O)=O (100 nM)
normalised response (CAL-148 [1]): 104%
normalised response (BT-549 [2]): 97.9%
normalised response (DU-4475 [3]): 95.6%
normalised response (HCC1599 [4]): 98.3%
normalised response (CAL-120 [5]): 87.2%
normalised response (MDA-MB-436 [6]): 91.9%
normalised response (Hs578T [7]): 94.3%
normalised response (BT-474 [8]): 89.8%
normalised response (SK-BR-3): 88.3%
normalised response (HCC1143 [9]): 96.5%
normalised response (CAL-51 [10]): 93.1%
normalised response (HCC1937 [11]): 96.5%
normalised response (MFM-223 [12]): 95.5%
normalised response (MCF-10A [13]): 86.2%
normalised response (MDA-MB-453 [14]): 90.4%
normalised response (MDA-MB-231 [15]): 89.6%
normalised response (MDA-MB-468 [16]): 88.5%
normalised response (HDQ-P1 [17]): 101%
normalised response (CAL-85-1 [18]): 95.5%
normalised response (CAL-148 [19]): 99.2%
normalised response (BT-549 [20]): 97.5%
normalised response (DU-4475 [21]): 98.1%
normalised response (HCC1599 [22]): 94%
normalised response (CAL-120 [23]): 99.9%
normalised response (MDA-MB-436 [24]): 80.3%
normalised response (Hs578T [25]): 104%
normalised response (BT-474 [26]): 94.5%
normalised response (HCC1143 [27]): 84.4%
normalised response (CAL-51 [28]): 87.6%
normalised response (HCC1937 [29]): 83.4%
normalised response (MFM-223 [30]): 103%
normalised response (MDA-MB-453 [32]): 103%
normalised response (MDA-MB-231 [35]): 85.8%
normalised response (MDA-MB-468 [33]): 115%
normalised response (CAL-85-1 [34]): 102%
